Measured values as given in patent US11439641B2, “Pyrimidine JAK inhibitors for the treatment of skin diseases” (THERAVANCE BIOPHARMA R&D IP, LLC, priority 2019, dated 2022).
≈ marks a conversion by molar mass, not a printed value.

Experiments:
[1] = test system: IL-2 stimulated pSTAT5 in Tall-1 T cells; test: Inhibition of IL-2 Stimulated pSTAT5 in Tall-1 T Cells; assay type: cell-based; conditions: Tall-1 human T cell line, IL-2 300 ng/mL, AlphaLisa; read-out: Tall-1 IL2 pSTAT5 (pIC50) (converted)
Experimental: Assay 2: Inhibition of IL-2 Stimulated pSTAT5 in Tall-1 T Cells
The potency of test compounds for inhibition of interleukin-2 (IL-2) stimulated STATS phosphorylation was measured in the Tall-1 human T cell line (DSMZ) using AlphaLisa. Because IL-2 signals through JAK1/3, this assay provides a measure of JAK1/3 cellular potency.
Phosphorylated STATS was measured via the AlphaLISA SureFire Ultra pSTAT5 (Tyr694/699) kit (PerkinElmer). Human T cells from the Tall-1 cell line were cultured in a 37° C., 5% CO2 humidified incubator in RPMI (Life Technologies) supplemented with 15% Heat Inactivated Fetal Bovine Serum (FBS, Life Technologies), 2 mM Glutamax (Life Technologies), 25 mM HEPES (Life Technologies) and 1× Pen/Strep (Life Technologies). Compounds were serially diluted in DMSO and dispensed acoustically to empty wells. Assay media (phenol red-free DMEM (Life Technologies) supplemented with 10% FBS (ATCC)) was dispensed (4 μL/well) and plates shaken at 900 rpm for 10 mins. Cells were seeded at 45,000 cells/well in assay media (4 μL/well), and incubated at 37° C., 5% CO2 for 1 hour, followed by the addition of IL-2 (R&D Systems; final concentration 300 ng/mL) in pre-warmed assay media (4 μL) for 30 minutes. After cytokine stimulation, cells were lysed with 6 ul of 3× AlphaLisa Lysis Buffer (PerkinElmer) containing 1× PhosStop and Complete tablets (Roche). The lysate was shaken at 900 rpm for 10 minutes at room temperature (RT). Phosphorylated STATS was measured via the pSTAT5 AlphaLisa kit (PerkinElmer). Freshly prepared acceptor bead mixture was dispensed onto lysate (51) under green filtered <100 lux light. Plates were shaken at 900 rpm for 2 mins, briefly spun down, and incubated for 2 hrs at RT in the dark. Donor beads were dispensed (5 μL) under green filtered <100 lux light. Plates were shaken at 900 rpm for 2 minutes, briefly spun down, and incubated overnight at RT in the dark. Luminescence was measured with excitation at 689 nm and emission at 570 nm using an EnVision plate r reader (PerkinElmer) under green filtered <100 lux light.
To determine the inhibitory potency of test compounds in response to IL-2, the average emission intensity of beads bound to pSTAT5 was measured in a human T cell line. IC50 values were determined from analysis of the inhibition curves of signal intensity versus compound concentration. Data are expressed as pIC50 (negative decadic logarithm IC50) values (mean±standard deviation).

JAK1 = JAK1 (Homo sapiens (Human), UniProt P23458); test: Biochemical JAK and Tyk2 Kinase Assays (LanthaScreen), JAK1; conditions: 25 μM ATP (Km), pIC50 converted to pKi by Cheng-Prusoff
JAK1, sequence (P23458 whole entry): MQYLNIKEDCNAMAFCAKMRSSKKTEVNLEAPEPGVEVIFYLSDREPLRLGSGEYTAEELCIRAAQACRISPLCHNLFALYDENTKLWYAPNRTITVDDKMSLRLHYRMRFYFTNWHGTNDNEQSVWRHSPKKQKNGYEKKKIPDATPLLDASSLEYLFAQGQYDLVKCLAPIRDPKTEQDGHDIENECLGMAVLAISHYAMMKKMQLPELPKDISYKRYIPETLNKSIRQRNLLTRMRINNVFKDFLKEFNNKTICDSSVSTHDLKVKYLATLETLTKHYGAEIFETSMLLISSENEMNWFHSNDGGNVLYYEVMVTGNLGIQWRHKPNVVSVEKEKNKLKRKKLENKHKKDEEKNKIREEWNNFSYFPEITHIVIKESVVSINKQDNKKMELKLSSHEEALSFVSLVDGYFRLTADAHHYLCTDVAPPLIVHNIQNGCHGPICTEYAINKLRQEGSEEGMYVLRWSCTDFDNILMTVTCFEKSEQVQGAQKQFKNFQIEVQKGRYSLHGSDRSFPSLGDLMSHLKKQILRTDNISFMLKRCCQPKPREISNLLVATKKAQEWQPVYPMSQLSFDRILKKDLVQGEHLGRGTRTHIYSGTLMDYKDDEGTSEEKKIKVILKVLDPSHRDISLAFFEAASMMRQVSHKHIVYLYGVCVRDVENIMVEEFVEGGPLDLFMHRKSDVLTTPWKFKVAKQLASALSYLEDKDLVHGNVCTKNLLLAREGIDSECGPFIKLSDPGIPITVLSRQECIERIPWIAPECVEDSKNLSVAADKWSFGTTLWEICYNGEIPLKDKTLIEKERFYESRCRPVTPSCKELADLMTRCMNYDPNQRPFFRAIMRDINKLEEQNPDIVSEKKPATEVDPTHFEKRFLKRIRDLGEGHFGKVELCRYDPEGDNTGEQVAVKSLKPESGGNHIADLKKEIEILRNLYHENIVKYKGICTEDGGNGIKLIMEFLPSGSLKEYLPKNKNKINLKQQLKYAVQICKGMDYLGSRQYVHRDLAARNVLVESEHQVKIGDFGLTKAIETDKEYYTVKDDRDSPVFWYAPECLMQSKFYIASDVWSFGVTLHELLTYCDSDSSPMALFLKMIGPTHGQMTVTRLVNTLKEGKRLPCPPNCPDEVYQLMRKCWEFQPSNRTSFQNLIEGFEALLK
Experimental: (§1) Assay 1: Biochemical JAK and Tyk2 Kinase Assays
(§2) A panel of four LanthaScreen JAK biochemical assays (JAK1, 2, 3 and Tyk2) were carried in a common kinase reaction buffer (50 mM HEPES, pH 7.5, 0.01% Brij-35, 10 mM MgCl2, and 1 mM EGTA). Recombinant GST-tagged JAK enzymes and a GFP-tagged STAT1 peptide substrate were obtained from Life Technologies.
(§3) Serially or discretely diluted compounds were pre-incubated with each of the four JAK enzymes and the substrate in white 384-well microplates (Corning) at ambient temperature for 1 h. ATP was subsequently added to initiate the kinase reactions in 10 μL total volume, with 1% DMSO. The final enzyme concentrations for JAK1, 2, 3 and Tyk2 are 4.2 nM, 0.1 nM, 1 nM, and 0.25 nM respectively; the corresponding Km ATP concentrations used are 25 μM, 3 μM, 1.6 μM, and 10 μM; while the substrate concentration is 200 nM for all four assays. Kinase reactions were allowed to proceed for 1 hour at ambient temperature before a 10 μL preparation of EDTA (10 mM final concentration) and Tb-anti-pSTAT1 (pTyr701) antibody (Life Technologies, 2 nM final concentration) in TR-FRET dilution buffer (Life Technologies) was added. The plates were allowed to incubate at ambient temperature for 1 h before being read on the EnVision reader (Perkin Elmer). Emission ratio signals (520 nm/495 nm) were recorded and utilized to calculate the percent inhibition values based on DMSO and background controls.
(§4) For dose-response analysis, percent inhibition data were plotted vs. compound concentrations, and IC50 values were determined from a 4-parameter robust fit model with the Prism software (GraphPad Software). Results were expressed as pIC50 (negative logarithm of IC50) and subsequently converted to pKi (negative logarithm of dissociation constant, Ki) using the Cheng-Prusoff equation.

JAK3 = JAK3 (Homo sapiens (Human), UniProt P52333); test: Biochemical JAK and Tyk2 Kinase Assays (LanthaScreen), JAK3; conditions: 1.6 μM ATP (Km); pIC50 converted to pKi by Cheng-Prusoff; read-out: JAK 3 (pKi) (converted)
JAK3, sequence (P52333 whole entry): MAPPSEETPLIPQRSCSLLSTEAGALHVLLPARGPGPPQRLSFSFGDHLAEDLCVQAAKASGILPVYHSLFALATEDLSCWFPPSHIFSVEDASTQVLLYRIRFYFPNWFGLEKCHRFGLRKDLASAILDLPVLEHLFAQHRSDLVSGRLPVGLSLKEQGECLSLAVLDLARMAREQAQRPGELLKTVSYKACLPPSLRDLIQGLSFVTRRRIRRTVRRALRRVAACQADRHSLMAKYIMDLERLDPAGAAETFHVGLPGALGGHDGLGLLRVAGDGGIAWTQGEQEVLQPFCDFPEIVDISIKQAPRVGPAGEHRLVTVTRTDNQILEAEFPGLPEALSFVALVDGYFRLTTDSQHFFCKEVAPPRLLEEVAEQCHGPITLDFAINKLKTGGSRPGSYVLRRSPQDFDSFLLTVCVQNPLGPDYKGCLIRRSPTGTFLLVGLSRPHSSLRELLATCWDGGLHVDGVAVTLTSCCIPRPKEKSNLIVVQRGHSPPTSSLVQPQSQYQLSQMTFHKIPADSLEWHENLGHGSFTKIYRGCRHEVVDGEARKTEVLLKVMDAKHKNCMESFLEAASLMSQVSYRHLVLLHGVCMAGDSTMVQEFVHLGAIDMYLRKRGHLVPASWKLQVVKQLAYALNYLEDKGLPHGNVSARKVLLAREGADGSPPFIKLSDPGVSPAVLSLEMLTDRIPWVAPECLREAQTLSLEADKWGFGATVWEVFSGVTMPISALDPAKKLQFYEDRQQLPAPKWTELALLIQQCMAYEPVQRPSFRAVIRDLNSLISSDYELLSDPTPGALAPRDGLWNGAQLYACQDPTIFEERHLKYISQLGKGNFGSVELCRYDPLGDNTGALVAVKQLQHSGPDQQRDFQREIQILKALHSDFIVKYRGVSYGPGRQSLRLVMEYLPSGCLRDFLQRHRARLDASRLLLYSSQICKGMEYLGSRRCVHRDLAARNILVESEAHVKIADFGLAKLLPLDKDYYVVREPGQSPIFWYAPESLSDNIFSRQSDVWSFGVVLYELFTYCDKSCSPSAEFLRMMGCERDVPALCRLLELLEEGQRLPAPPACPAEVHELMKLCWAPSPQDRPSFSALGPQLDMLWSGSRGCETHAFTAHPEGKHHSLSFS
Experimental: as §1, §2, §3, §4

physchem = conditions: thermodynamic from solid
Caco-2 cell monolayer = test: Caco-2 Permeation Assay; assay type: in vitro ADME; conditions: Papp, 5 μM compound; for Cacoverap Kp 10^−6 cm/sec: A→B in the presence of 25 μM verapamil (P-gp inhibitor); for Caco Kp 10^−6 cm/sec: apical to basal (A→B)
Experimental: Assay 3: Caco-2 Permeation Assay
The Caco 2 permeability assay was used as a surrogate for assessment of skin permeability. This assay measures the in vitro permeability across a monolayer of Caco-2 cells, which morphologically and functionally resemble the enterocytes of the small intestine.
CacoReady 24-well transwell plates were obtained from ADMEcell (Alameda, Calif.). The compounds were evaluated at a concentration of 5 μM from 10 mM DMSO stock solutions in duplicate (n=2). Transport in the apical to basal (A→B) direction was determined in Caco 2 cell monolayers. From these values the apparent permeability (Papp) was calculated. To inform on the potential of the compound to be a P-gp substrate, the transport of the compound across the Caco-2 cell monolayer was also determined in the presence of 25 μM of the known P-gp inhibitor verapamil (Yusa and Tsuruo et al., Cancer Research, vol. 49, no. 18, 1989, pp. 5002-06).
Caco-2 culture media consisted of standard filtered DMEM, FCS 10%, L-Glutamine 1%, and PenStrep 1%. The experiment was conducted at 37° C. and in a CO2 (5%) incubator. The basal assay plate was prepared by adding 750 pt of transport buffer to A→B wells. A CacoReady™ plate was prepared by removing the Caco-2 media from the apical wells and replacing with fresh transport media (200 pt repeated for a total of 3 washes). Blank media (200 μL) was then replaced with diluted compound. To begin the incubation, the basal plate was removed from the incubator and the apical section was added on top of it. Samples were collected from the apical and basal compartments for time zero (t0). Samples were collected again after 120 minutes (t120) from the apical and basal compartments. All samples were diluted and prepared for bioanalysis by LC-MS/MS. The permeability coefficients (Papp, mean A to B) and (Papp, mean A to B+Verapamil) in cm/sec were calculated as dQ (flux)/(dt×Area×concentration).
In this assay, a compound with a Papp value of more than about 12×10−6 cm/sec is considered to have high permeability.

[2] = oil or lipid, Solubility in MCT (mg/mL)
[3] = organic solvent or mixture, Solubility in Diisopropyl adipate (mg/mL)
[4] = organic solvent or mixture, Solubility in PEG400 (mg/mL)
[5] = organic solvent or mixture, Solubility in Propylene glycol (mg/mL)

SMILES	IC50 [1] [nM]	JAK 1 (pKi) (JAK1)	Ki (JAK3) [nM]	solubility at 4 h (physchem; [2]) [µg/mL]	solubility at 4 h (physchem; [3]) [µg/mL]	solubility at 4 h (physchem; [4]) [µg/mL]	solubility at 4 h (physchem; [5]) [µg/mL]	Cacoverap Kp 10^−6 cm/sec (Caco-2 cell monolayer)	Caco Kp 10^−6 cm/sec (Caco-2 cell monolayer)	Ki (JAK1; read-out: JAK 1 (pKi) (converted)) [nM]
CCC(=O)N1[C@@H]2CCC[C@H]1C[C@H](N(C)c1nc(Nc3cc(C)[nH]n3)cc(O[C@H]3CCOC3)n1)C2 [Compound 28]	≤ 10	A (A represents a pKi value ≥10 (Ki≤0.1 nM))	0.1 to 1	< 5000	5000 to 10000 (≈ 10.6 to 21.3 mM)	5000 to 10000 (≈ 10.6 to 21.3 mM)	> 10000	–	–	–
Cc1cc(Nc2cc(O[C@@H]3CCOC3)nc(N(C)[C@@H]3C[C@H]4CCC[C@@H](C3)N4C(=O)CC3CC3)n2)n[nH]1 [Compound 26]	≤ 10	A (A represents a pKi value ≥10 (Ki≤0.1 nM))	0.1 to 1	< 5000	< 5000	< 5000	< 5000	–	–	–
Cc1cc(Nc2cc(O[C@H]3CCOC3)nc(N(C)[C@@H]3C[C@H]4CCC[C@@H](C3)N4C(=O)CC3CC3)n2)n[nH]1 [Compound 30]	≤ 10	A (A represents a pKi value ≥10 (Ki≤0.1 nM))	0.1 to 1	< 5000	< 5000	< 5000	< 5000	–	–	–
CCS(=O)(=O)N1[C@@H]2CCC[C@H]1C[C@H](N(C)c1nc(Nc3cc(C)[nH]n3)cc(C3CCOCC3)n1)C2 [Compound 1, N^2-((1R,3s,5S)-9-(ethylsulfonyl)-9-azabicyclo[3.3.1]nonan-3-yl)-N^2-methyl-N^4-(5-methyl-1H-pyrazol-3-yl)-6-(tetrahydro-2H-pyran-4-yl)pyrimidine-2,4-diamine]	≤ 10	A (A represents a pKi value ≥10 (Ki≤0.1 nM))	0.1 to 1	< 5000	> 10000	> 10000	> 10000	A (A represents a value above 35×10^−6 cm/sec)	A (A represents a value above 30×10^−6 cm/sec)	–
CCNC(=O)CN1[C@@H]2CCC[C@H]1C[C@H](N(C)c1nc(Nc3cc(C)[nH]n3)cc(O[C@@H]3CCOC3)n1)C2 [Compound 20]	≤ 10	A (A represents a pKi value ≥10 (Ki≤0.1 nM))	0.1 to 1	< 5000	> 10000	> 10000	> 10000	B (B represents a value between 20×10^−6 and 35×10^−6 cm/sec)	B (B represents a value between 15×10^−6 and 30×10^−6 cm/sec)	–
Cc1cc(Nc2cc(OC3COC3)nc(N(C)[C@@H]3C[C@H]4CCC[C@@H](C3)N4CC(=O)N3CCCC3)n2)n[nH]1 [Compound 38]	≤ 10	A (A represents a pKi value ≥10 (Ki≤0.1 nM))	0.1 to 1	< 5000	< 5000	< 5000	< 5000	–	–	–
Cc1cc(Nc2cc(O[C@@H]3CCOC3)nc(N(C)[C@@H]3C[C@H]4CCC[C@@H](C3)N4CC(=O)N3CCCC3)n2)n[nH]1 [Compound 19]	≤ 10	A (A represents a pKi value ≥10 (Ki≤0.1 nM))	0.1 to 1	< 5000	< 5000	< 5000	< 5000	–	–	–
COC(=O)N1[C@@H]2CCC[C@H]1C[C@H](N(C)c1nc(Nc3cc(C)[nH]n3)cc(OC3COC3)n1)C2 [Compound 36]	≤ 10	–	1 to 10	< 5000	5000 to 10000 (≈ 10.9 to 21.9 mM)	> 10000	> 10000	B (B represents a value between 20×10^−6 and 35×10^−6 cm/sec)	B (B represents a value between 15×10^−6 and 30×10^−6 cm/sec)	0.1 to 1
COCCC(=O)N1[C@@H]2CCC[C@H]1C[C@H](N(C)c1nc(Nc3cc(C)[nH]n3)cc(O[C@H]3CCOC3)n1)C2 [Compound 29]	≤ 10	A (A represents a pKi value ≥10 (Ki≤0.1 nM))	0.1 to 1	< 5000	> 10000	5000 to 10000 (≈ 10 to 20 mM)	> 10000	–	–	–
CCNC(=O)CN1[C@@H]2CCC[C@H]1C[C@H](N(C)c1nc(Nc3cc(C)[nH]n3)cc(OC3COC3)n1)C2 [Compound 37]	≤ 10	A (A represents a pKi value ≥10 (Ki≤0.1 nM))	0.1 to 1	< 5000	< 5000	< 5000	< 5000	–	–	–
CCOC(=O)N1[C@@H]2CCC[C@H]1C[C@H](N(C)c1nc(Nc3cc(C)[nH]n3)cc(O[C@@H]3CCOC3)n1)C2 [Compound 24]	10 to 31.6	A (A represents a pKi value ≥10 (Ki≤0.1 nM))	0.1 to 1	< 5000	< 5000	< 5000	< 5000	–	–	–
COC(=O)N1[C@@H]2CCC[C@H]1C[C@H](N(C)c1nc(Nc3cc(C)[nH]n3)cc(O[C@H]3CCOC3)n1)C2 [Compound 27]	10 to 31.6	A (A represents a pKi value ≥10 (Ki≤0.1 nM))	0.1 to 1	< 5000	< 5000	< 5000	< 5000	–	–	–
